According to ChEMBL document CHEMBL1128994, “Carboxylic acid bioisosteres of -linked dipeptide analogues of the folate-based thymidylate synthase (TS) inhibitor, 2-desamino-2-methyl-N10-propargyl-5,8-dideazafolic acid (ICI 198583)” (Bioorg Med Chem Lett, 1996):

Assays:
L1210 [1] = assay: Compound was evaluated for the growth inhibition of mouse L1210 (impaired) cells.; assay type: functional, cell-based
L1210 [2] = assay: Compound was evaluated for the growth inhibition of mouse L1210 cells.; assay type: functional, cell-based
L1210 (1565) = assay: Compound was evaluated for the growth inhibition of […].; assay type: functional, cell-based
Thymidylate synthase [3] = biological target: T1, Thymidylate synthase (Mus musculus, UniProt P07607); assay: Compound was evaluated for the inhibition of Thymidylate synthase.
L1210 [4] = assay: Compound was evaluated for the growth inhibition of mouse L1210 cells in experiment 2; assay type: functional, cell-based
Thymidylate synthase [5] = biological target: T1, Thymidylate synthase; assay: Compound was evaluated for the inhibition of Thymidylate synthase in experiment 1
L1210 [6] = assay: Compound was evaluated for the growth inhibition of mouse L1210 cells in experiment 1; assay type: functional, cell-based
Thymidylate synthase [7] = biological target: T1, Thymidylate synthase; assay: Compound was evaluated for the inhibition of Thymidylate synthase in experiment 2

T1 sequence (P07607 whole entry): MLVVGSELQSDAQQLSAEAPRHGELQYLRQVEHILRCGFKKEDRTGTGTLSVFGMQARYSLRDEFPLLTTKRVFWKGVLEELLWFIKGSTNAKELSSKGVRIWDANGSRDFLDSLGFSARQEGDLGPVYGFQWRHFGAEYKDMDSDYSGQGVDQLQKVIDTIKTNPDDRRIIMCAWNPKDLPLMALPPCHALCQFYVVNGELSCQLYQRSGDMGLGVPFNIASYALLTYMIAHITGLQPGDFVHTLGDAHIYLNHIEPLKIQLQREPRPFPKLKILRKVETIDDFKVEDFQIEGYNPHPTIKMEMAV

C#CCN(Cc1ccc2nc(C)nc(O)c2c1)c1ccc(C(=O)N[C@@H](CCC(=O)N[C@H](CCC(=O)O)C(=O)O)C(=O)O)cc1
IC50 (L1210 [1]): 15000 nM
IC50 (L1210 [2]; Mus musculus, L1210): 330 nM
IC50 (L1210 (1565)): 16000 nM

C#CCN(Cc1cc2c(O)nc(C)nc2cc1C)c1ccc(C(=O)N[C@@H](CCC(=O)N[C@@H](C)c2nnn[nH]2)C(=O)O)c(F)c1
IC50 (L1210 [1]): 2000 nM
IC50 (Thymidylate synthase [3]): 1 nM
IC50 (L1210 [2]; Mus musculus, L1210): 350 nM
IC50 (L1210 [2]; l1210): 260 nM
IC50 (L1210 (1565)): 1000 nM

C#CCN(Cc1cc2c(O)nc(C)nc2cc1C)c1ccc(C(=O)N[C@@H](CCC(=O)N[C@@H](CCc2nnn[nH]2)C(=O)O)C(=O)O)c(F)c1
IC50 (L1210 [4]): 750 nM
IC50 (Thymidylate synthase [5]): 0.82 nM
IC50 (L1210 [1]): 8000 nM
IC50 (L1210 (1565)): 7400 nM
IC50 (L1210 [6]): 1500 nM
IC50 (Thymidylate synthase [7]): 1.86 nM

C#CCN(Cc1ccc2nc(C)[nH]c(=O)c2c1)c1ccc(C(=O)N[C@@H](CCC(=O)N[C@@H](CCc2nnn[nH]2)C(=O)O)C(=O)O)cc1
IC50 (L1210 [4]): 4900 nM
IC50 (Thymidylate synthase [5]): 6 nM
IC50 (L1210 [1]): 44000 nM
IC50 (L1210 (1565)): 41000 nM
IC50 (L1210 [6]): 6200 nM
IC50 (Thymidylate synthase [7]): 4 nM

C#CCN(Cc1cc2c(=O)[nH]c(C)nc2cc1C)c1ccc(C(=O)N[C@@H](CCC(=O)NC(CCC(=O)O)C(=O)O)C(=O)O)c(F)c1 (stereo in doubt)
IC50 (Thymidylate synthase [5]): 0.4 nM
IC50 (L1210 [1]): 6800 nM
IC50 (L1210 [2]; Mus musculus, L1210): 200 nM
IC50 (L1210 (1565)): 8700 nM
IC50 (Thymidylate synthase [7]): 0.92 nM
